Measurements taken from the supplement of paper PMC10331698.
± gives the standard deviation of the averaged measurements.

Assays:
Experiment in all cases: level (log10 ratio to DMSO vehicle control); higher = higher biomarker level / cell amount than vehicle control
Conditions in all cases: in DMSO
Pentafluoropropionamide = compound: NC(=O)C(F)(F)C(F)(F)F [Pentafluoropropionamide]
Protocol: (§1)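 BioMAP Diversity Plus panel of 12 human primary cell co-culture systems (3C, 4H, LPS, SAg, BT, BF4T, BE3C, CASM3C, HDF3CGF, KF3CT, MyoF, Mphg). Compounds were added 1 h before stimulation and left for 24 h (MyoF 48 h; BT 72 h for soluble read-outs or 6 d for IgG). Biomarkers were read by ELISA, cytotoxicity by SRB, PBMC viability and proliferation by Alamar Blue. Each well value was divided by the mean of 8 DMSO control wells on the same plate and log10 transformed; duplicate blinded samples were tested at 4 concentrations.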

[1] = compound: O=C(O)C(F)(F)C(F)(F)C(F)F [4H-Perfluorobutanoic acid]
Protocol: as §1

Perfluoropentanoic acid = compound: O=C(O)C(F)(F)C(F)(F)C(F)(F)C(F)(F)F [Perfluoropentanoic acid]
Protocol: as §1

[2] = compound: O=C(O)C(F)(F)C(F)(F)OC(F)(F)F [Perfluoro-3-methoxypropanoic acid]
Protocol: as §1

[3] = compound: FC(F)(F)C(F)(C(F)(F)F)C(F)(F)C(F)(F)CC1CO1 [3-(Perfluoro-3-methylbutyl)-1,2-propenoxide]
Protocol: as §1

[4] = compound: O=C(O)C(F)(F)C(F)(F)C(F)(F)OC(F)(C(F)(F)F)C(F)(F)F [Perfluoro-4-isopropoxybutanoic acid]
Protocol: as §1

[5] = compound: O=S(=O)(O)C(F)(F)C(F)(F)C(F)(F)C(F)(F)C(F)(F)C(F)(F)F [Perfluorohexanesulfonic acid]
Protocol: as §1

Row | Test System | level (log10) (Pentafluoropropionamide; 6700 nM) | level (log10) (Pentafluoropropionamide; 20000 nM) | level (log10) (Pentafluoropropionamide; 60000 nM) | level (log10) ([1]; 6700 nM) | level (log10) ([1]; 20000 nM) | level (log10) ([1]; 60000 nM) | level (log10) (Perfluoropentanoic acid; 6700 nM) | level (log10) (Perfluoropentanoic acid; 20000 nM) | level (log10) (Perfluoropentanoic acid; 60000 nM) | level (log10) ([2]; 6700 nM) | level (log10) ([2]; 20000 nM) | level (log10) ([2]; 60000 nM) | level (log10) ([3]; 6700 nM) | level (log10) ([3]; 20000 nM) | level (log10) ([4]; 6700 nM) | level (log10) ([4]; 20000 nM) | level (log10) ([4]; 60000 nM) | level (log10) ([5]; 6700 nM) | level (log10) ([5]; 20000 nM) | level (log10) ([5]; 60000 nM)
1 | BT:B cell Proliferation | 0.005 ± 0.057 | -0.0215 ± 0.019 | 0.0205 ± 0.019 | 0.016 ± 0.0099 | 0.0055 ± 0.019 | 0.0065 ± 0.036 | 0.009 ± 0.0057 | 0.0215 ± 0.06 | 0.0275 ± 0.012 | -0.022 ± 0.023 | 0.0015 ± 0.022 | 0.0135 ± 0.005 | -0.002 ± 0.025 | 0.017 ± 0.0099 | -0.002 ± 0.0071 | 0.0275 ± 0.0092 | 0.065 ± 0.016 | -0.0075 ± 0.047 | 0.0015 ± 0.053 | 0.063 ± 0.024
2 | BT:sIL-6 | 0.055 ± 0.027 | 0.017 ± 0.023 | -0.0095 ± 0.052 | -0.008 | -0.046 ± 0.031 | -0.0915 ± 0.026 | -0.0355 ± 0.1 | 0.01 ± 0.051 | 0.022 ± 0.04 | 0.004 ± 0.11 | 0.0285 ± 0.036 | -0.0045 ± 0.05 | 0.0275 ± 0.043 | -0.0215 ± 0.005 | 0.019 ± 0.044 | 0.019 ± 0.025 | 0.0035 ± 0.047 | 0.046 ± 0.052 | 0.0105 ± 0.036 | -0.056 ± 0.061
3 | BF4T:MMP-1 | -0.005 ± 0.0099 | -0.0105 ± 0.0078 | 0.012 ± 0.016 | -0.0075 ± 0.019 | 0 ± 0.034 | 0.006 ± 0.038 | 0 ± 0.014 | -0.005 ± 0.0057 | 0.0085 ± 0.0092 | 0.0025 ± 0.0021 | 0.008 ± 0.0042 | 0.0205 ± 0.023 | -0.0115 ± 0.047 | 0.02 ± 0.067 | -0.0035 ± 0.022 | 0.0155 ± 0.026 | 0.027 ± 0.03 | 0.0035 ± 0.0021 | -0.0025 ± 0.023 | 0.0255 ± 0.0035
4 | LPS:CCL2/MCP-1 | -0.0035 ± 0.011 | -0.017 ± 0.0028 | 0.008 ± 0.04 | -0.0195 ± 0.0021 | -0.007 ± 0.0042 | 0.017 ± 0.054 | 0.0065 ± 0.0064 | -0.0065 ± 0.00071 | 0.0225 ± 0.039 | -0.005 ± 0.0057 | 0.003 ± 0.0071 | 0.0055 ± 0.03 | -0.01 ± 0.0057 | 0.005 ± 0.024 | -0.0045 ± 0.016 | 0.022 ± 0.025 | 0.0725 ± 0.0035 | 0.0045 ± 0.0064 | 0.0045 ± 0.0064 | 0.028 ± 0.024
5 | BF4T:CD106/VCAM-1 | -0.001 ± 0.018 | -0.0045 ± 0.0021 | -0.016 ± 0.0071 | 0.0145 ± 0.033 | -0.0365 ± 0.054 | 0.028 ± 0.078 | -0.0425 ± 0.036 | -0.046 ± 0.016 | 0.018 ± 0.04 | -0.025 ± 0.031 | -0.029 ± 0.011 | 0.022 ± 0.014 | 0.0025 ± 0.03 | 0.0425 ± 0.032 | -0.042 | -0.035 ± 0.02 | -0.0065 ± 0.037 | -0.022 ± 0.024 | -0.019 ± 0.0014 | -0.0155 ± 0.033
6 | BE3C:EGFR | -0.019 ± 0.016 | -0.0095 ± 0.015 | -0.0235 ± 0.04 | -0.0135 ± 0.011 | -0.0085 ± 0.0064 | 0.032 ± 0.025 | -0.0025 ± 0.021 | -0.011 ± 0.0057 | 0.004 ± 0.018 | -0.0075 ± 0.05 | 0.0065 ± 0.018 | 0.0335 ± 0.04 | -0.01 ± 0.013 | -0.023 ± 0.013 | 0.012 ± 0.027 | 0.0075 ± 0.005 | 0.044 ± 0.042 | -0.005 | -0.0085 ± 0.0078 | 0.001 ± 0.0028
7 | LPS:CD69 | -0.03 ± 0.0014 | -0.0255 ± 0.016 | -0.01 ± 0.0028 | 0.024 ± 0.035 | 0.02 ± 0.034 | 0.028 ± 0.028 | 0.007 ± 0.011 | -0.0305 ± 0.013 | -0.0135 ± 0.083 | -0.0065 ± 0.013 | -0.02 ± 0.013 | 0.013 ± 0.025 | -0.023 ± 0.027 | -0.004 ± 0.0057 | -0.0005 ± 0.023 | -0.006 ± 0.0042 | -0.0145 ± 0.046 | -0.0125 ± 0.049 | -0.0035 ± 0.047 | -0.036 ± 0.052
8 | LPS:CD141/Thrombomodulin | -0.0385 ± 0.00071 | -0.005 ± 0.0028 | -0.01 ± 0.0014 | -0.009 | -0.012 ± 0.016 | -0.008 ± 0.013 | -0.0115 ± 0.047 | -0.045 ± 0.073 | -0.0085 ± 0.11 | 0.0175 ± 0.036 | 0.0075 ± 0.022 | 0.0255 ± 0.028 | 0.0355 ± 0.0035 | 0.019 ± 0.034 | 0.0205 ± 0.012 | 0.016 ± 0.013 | 0.0225 ± 0.0035 | -0.007 ± 0.0057 | -0.0065 ± 0.013 | -0.008 ± 0.0014
9 | SAg:CD38 | -0.026 ± 0.02 | -0.0125 ± 0.028 | 0.0005 ± 0.0064 | 0.008 ± 0.028 | 0.0195 ± 0.0021 | 0.017 ± 0.021 | 0.003 ± 0.017 | 0.0015 ± 0.011 | 0.002 ± 0.0057 | -0.007 ± 0.0042 | 0.003 ± 0.0085 | -0.0005 ± 0.012 | -0.0005 ± 0.0021 | 0.015 ± 0.018 | -0.003 ± 0.014 | -0.0015 ± 0.0035 | -0.017 ± 0.014 | -0.006 ± 0.014 | 0.004 ± 0.038 | -0.023 ± 0.014
10 | SAg:CCL2/MCP-1 | -0.012 ± 0.0014 | -0.018 ± 0.0099 | -0.0095 ± 0.016 | -0.011 ± 0.038 | -0.0085 ± 0.04 | -0.0065 ± 0.081 | 0.0085 ± 0.021 | -0.0205 ± 0.011 | 0.023 ± 0.031 | -0.007 ± 0.013 | -0.0075 ± 0.0092 | -0.0035 ± 0.0078 | -0.0225 ± 0.039 | 0.004 ± 0.0085 | -0.007 ± 0.021 | 0.006 ± 0.016 | 0.039 ± 0.02 | 0.015 ± 0.0071 | 0.0095 ± 0.018 | 0.017
11 | SAg:SRB | -0.0005 ± 0.016 | -0.0055 ± 0.0092 | -0.01 ± 0.014 | -0.0055 ± 0.0078 | -0.0145 ± 0.0021 | 0 ± 0.0028 | -0.007 ± 0.0099 | -0.0035 ± 0.00071 | 0.0055 ± 0.015 | -0.0025 ± 0.0078 | -0.0005 ± 0.0021 | -0.0045 ± 0.0064 | -0.006 ± 0.023 | -0.0025 ± 0.0021 | -0.001 ± 0.018 | -0.0085 ± 0.016 | -0.018 ± 0.0085 | -0.019 ± 0.0085 | -0.018 ± 0.0042 | -0.033 ± 0.03
12 | BE3C:CXCL8/IL-8 | 0.016 ± 0.028 | 0.0125 ± 0.074 | 0.0445 ± 0.044 | 0.015 ± 0.099 | 0.0165 ± 0.044 | 0.0695 ± 0.071 | -0.023 ± 0.0042 | -0.036 ± 0.017 | -0.0085 ± 0.057 | -0.0445 ± 0.0064 | -0.031 ± 0.0028 | -0.007 ± 0.03 | 0.011 | 0.0205 ± 0.023 | 0.0175 ± 0.025 | 0.0185 ± 0.019 | 0.015 ± 0.038 | 0.017 ± 0.0071 | 0.0175 ± 0.023 | -0.032 ± 0.044
13 | LPS:sTNF-alpha | 0.05 ± 0.0014 | 0.0015 ± 0.023 | 0.0095 ± 0.04 | 0.0095 ± 0.043 | 0.0095 ± 0.023 | 0.004 ± 0.031 | 0.003 ± 0.021 | 0.01 ± 0.0071 | 0.021 ± 0.014 | 0.036 ± 0.011 | 0.036 ± 0.045 | 0.06 ± 0.059 | 0.0005 ± 0.0078 | -0.0025 ± 0.005 | -0.0215 ± 0.15 | -0.012 ± 0.13 | -0.031 ± 0.1 | -0.007 ± 0.025 | -0.0195 ± 0.015 | -0.0695 ± 0.0092
14 | SAg:CXCL8/IL-8 | -0.0245 ± 0.025 | -0.0255 ± 0.036 | 0.0075 ± 0.04 | -0.0325 ± 0.03 | -0.0065 ± 0.022 | 0.025 ± 0.098 | -0.012 ± 0.041 | -0.018 ± 0.044 | -0.013 ± 0.088 | 0.021 ± 0.0028 | -0.017 ± 0.034 | 0.0095 ± 0.04 | 0.0035 ± 0.0021 | 0.013 ± 0.041 | 0.009 ± 0.037 | 0.02 ± 0.02 | 0.071 ± 0.023 | 0.0185 ± 0.012 | 0.019 ± 0.018 | 0.107 ± 0.04
15 | BF4T:CXCL8/IL-8 | 0.019 ± 0.028 | 0.0175 ± 0.022 | 0.02 ± 0.02 | 0.0385 ± 0.0078 | 0.046 ± 0.024 | 0.0445 ± 0.04 | -0.0345 ± 0.013 | -0.0295 ± 0.013 | -0.0105 ± 0.035 | -0.004 ± 0.025 | -0.0225 ± 0.042 | 0.001 ± 0.068 | 0.0045 ± 0.015 | 0.014 ± 0.03 | 0.0025 ± 0.0064 | 0.0145 ± 0.005 | 0.0235 ± 0.028 | 0.002 ± 0.0085 | 0.0075 ± 0.0078 | 0.0255 ± 0.018
